Reference: patent US20230085307A1, “PYRIDAZINONE COMPOUND AND HERBICIDE” (NISSAN CHEMICAL CORPORATION, priority 2019, published 2023)

Columns and labels:
[1] = tested on: Chinese sprangletop; experiment: Test Example 3: herbicidal effect by foliage application, Wagner pot (Table 18, symbol D); assay type: in vivo, chinese sprangletop (Leptochloa chinensis); settings: 320 g/ha
Procedure, shortened: (§1)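 Plants were sown in alluvial soil held under 0.1–0.5 cm standing water and grown 14 days in a greenhouse at 25–30 °C. An emulsifiable formulation, water-diluted to the set dose, was then sprayed onto the foliage, and effects were scored three weeks later using previously defined criteria.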

[2] = tested on: oval-leafed pondweed; experiment: Test Example 2: herbicidal activity, application during weed generation under submerged conditions (Table 17, symbol C); assay type: in vivo, oval-leafed pondweed (Monochoria vaginalis); settings: AAH 320 g/ha; application during weed generation, submerged conditions
Protocol: (§2) [Test Example 2] Herbicidal Activity Test by Application during Weed Generation under Submerged Conditions After alluvial soil was placed into 1/10000 are of Wagner pot, water was poured and mixed to form a submerged condition having a water depth of 4 cm. Seeds of late watergrass, Japanese bulrush, and oval-leafed pondweed were sowed in a mixed manner in the aforementioned pot, and the pot was placed in a greenhouse at 25° C. to 30° C. for growth of the plants. When late watergrass, Japanese bulrush, and oval-leafed pondweed were grown to one leaf stage to two leaf stage, the emulsion agent of the compound of the present invention prepared according to Formulation Example 2 was diluted with water so as to achieve a predetermined herbicide amount, and the diluted emulsion agent was applied to the surface of the water. Three weeks after the herbicide application, the effect of the herbicide on each plant was evaluated according to the criteria of Test Example 1.

[3] = tested on: late watergrass; experiment: Test Example 2: herbicidal activity, application during weed generation under submerged conditions (Table 17, symbol A); assay type: in vivo, late watergrass (Echinochloa oryzicola); settings: AAH 320 g/ha; application during weed generation, submerged conditions
Protocol: as §2

[4] = tested on: rice flat sedge; experiment: Test Example 3: herbicidal effect by foliage application, Wagner pot (Table 18, symbol E); assay type: in vivo, rice flat sedge (Cyperus iria); settings: 320 g/ha
Procedure, shortened: as §1

[5] = tested on: Japanese bulrush; experiment: Test Example 2: herbicidal activity, application during weed generation under submerged conditions (Table 17, symbol B); assay type: in vivo, Japanese bulrush (Schoenoplectus juncoides); settings: AAH 320 g/ha; application during weed generation, submerged conditions
Protocol: as §2

[6] = tested on: barnyard grass; experiment: Test Example 3: herbicidal effect by foliage application, Wagner pot (Table 18, symbol H); assay type: in vivo, barnyard grass (Echinochloa crus-galli); settings: 320 g/ha
Procedure, shortened: as §1

[7] = tested on: green foxtail; experiment: Test Example 5: herbicidal effect by foliage application, plastic box (Table 20, symbol G); assay type: in vivo, green foxtail (Setaria viridis); settings: foliage application, 320 g/ha, 3 weeks after application
Procedure, shortened: (§3)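 Foliar spray test: emulsion formulation diluted in water to a set application rate, sprayed onto 14-day-old plants raised in diluvial soil at 25° C to 30° C under glass. Both herbicidal effect and crop effect rated visually three weeks later.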

[8] = tested on: late watergrass; experiment: Test Example 1: herbicidal activity, application before weed generation under submerged conditions (Table 16, symbol A); assay type: in vivo, late watergrass (Echinochloa oryzicola); settings: 320 g/ha applied herbicide
Procedure, shortened: (§4)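 Emulsion formulation, water-diluted to set dose, was put onto the flooded surface (4 cm depth, alluvial soil) the same day weeds were sown and 2.5-leaf rice transplanted. After 3 weeks at 25-30 °C under glass, each species was rated 0 (≤5% kill) to 5 (≥90% kill).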

[9] = tested on: velvetleaf; experiment: Test Example 5: herbicidal effect by foliage application, plastic box (Table 20, symbol M); assay type: in vivo, velvetleaf (Abutilon theophrasti); settings: foliage application, 320 g/ha, 3 weeks after application
Procedure, shortened: as §3

[10] = tested on: Italian ryegrass; experiment: Test Example 5: herbicidal effect by foliage application, plastic box (Table 20, symbol K); assay type: in vivo, Italian ryegrass (Lolium multiflorum); settings: foliage application, 320 g/ha, 3 weeks after application
Procedure, shortened: as §3

[11] = tested on: southern crabgrass; experiment: Test Example 4: herbicidal effect by soil treatment (Table 19, symbol F); assay type: in vivo, southern crabgrass (Digitaria ciliaris); settings: AAH 320 g/ha
Procedure, shortened: (§5)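 Step 1: sow seeds in sterilized diluvial soil, cover ~1.5 cm. Step 2: spray diluted emulsion onto soil surface at predetermined rate. Step 3: greenhouse, 25–30° C, three weeks. Step 4: grade effect on each plant by earlier criteria.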

[12] = tested on: blackgrass; experiment: Test Example 5: herbicidal effect by foliage application, plastic box (Table 20, symbol J); assay type: in vivo, blackgrass (Alopecurus myosuroides); settings: foliage application, 320 g/ha, 3 weeks after application
Procedure, shortened: as §3

[13] = tested on: redroot pigweed; experiment: Test Example 4: herbicidal effect by soil treatment (Table 19, symbol N); assay type: in vivo, redroot pigweed (Amaranthus retroflexus); settings: AAH 320 g/ha
Procedure, shortened: as §5

[14] = tested on: velvetleaf; experiment: Test Example 4: herbicidal effect by soil treatment (Table 19, symbol M); assay type: in vivo, velvetleaf (Abutilon theophrasti); settings: AAH 320 g/ha
Procedure, shortened: as §5

[15] = tested on: oval-leafed pondweed; experiment: Test Example 1: herbicidal activity, application before weed generation under submerged conditions (Table 16, symbol C); assay type: in vivo, oval-leafed pondweed (Monochoria vaginalis); settings: 320 g/ha applied herbicide
Procedure, shortened: as §4

[16] = tested on: Japanese bulrush; experiment: Test Example 1: herbicidal activity, application before weed generation under submerged conditions (Table 16, symbol B); assay type: in vivo, Japanese bulrush (Schoenoplectus juncoides); settings: 320 g/ha applied herbicide
Procedure, shortened: as §4

[17] = tested on: southern crabgrass; experiment: Test Example 5: herbicidal effect by foliage application, plastic box (Table 20, symbol F); assay type: in vivo, southern crabgrass (Digitaria ciliaris); settings: foliage application, 320 g/ha, 3 weeks after application
Procedure, shortened: as §3

[18] = tested on: wild oat; experiment: Test Example 5: herbicidal effect by foliage application, plastic box (Table 20, symbol I); assay type: in vivo, wild oat (Avena fatua); settings: foliage application, 320 g/ha, 3 weeks after application
Procedure, shortened: as §3

[19] = tested on: barnyard grass; experiment: Test Example 5: herbicidal effect by foliage application, plastic box (Table 20, symbol H); assay type: in vivo, barnyard grass (Echinochloa crus-galli); settings: foliage application, 320 g/ha, 3 weeks after application
Procedure, shortened: as §3

[20] = tested on: green foxtail; experiment: Test Example 4: herbicidal effect by soil treatment (Table 19, symbol G); assay type: in vivo, green foxtail (Setaria viridis); settings: AAH 320 g/ha
Procedure, shortened: as §5

[21] = tested on: Italian ryegrass; experiment: Test Example 4: herbicidal effect by soil treatment (Table 19, symbol K); assay type: in vivo, Italian ryegrass (Lolium multiflorum); settings: AAH 320 g/ha
Procedure, shortened: as §5

[22] = tested on: chickweed; experiment: Test Example 4: herbicidal effect by soil treatment (Table 19, symbol P); assay type: in vivo, common chickweed (Stellaria media); settings: AAH 320 g/ha
Procedure, shortened: as §5

[23] = tested on: lambsquarters; experiment: Test Example 5: herbicidal effect by foliage application, plastic box (Table 20, symbol O); assay type: in vivo, lambsquarters (Chenopodium album); settings: foliage application, 320 g/ha, 3 weeks after application
Procedure, shortened: as §3

[24] = tested on: persian speedwell; experiment: Test Example 5: herbicidal effect by foliage application, plastic box (Table 20, symbol R); assay type: in vivo, Persian speedwell (Veronica persica); settings: foliage application, 320 g/ha, 3 weeks after application
Procedure, shortened: as §3

[25] = tested on: lambsquarters; experiment: Test Example 4: herbicidal effect by soil treatment (Table 19, symbol O); assay type: in vivo, lambsquarters (Chenopodium album); settings: AAH 320 g/ha
Procedure, shortened: as §5

[26] = tested on: wild oat; experiment: Test Example 4: herbicidal effect by soil treatment (Table 19, symbol I); assay type: in vivo, wild oat (Avena fatua); settings: AAH 320 g/ha
Procedure, shortened: as §5

[27] = tested on: blackgrass; experiment: Test Example 4: herbicidal effect by soil treatment (Table 19, symbol J); assay type: in vivo, blackgrass (Alopecurus myosuroides); settings: AAH 320 g/ha
Procedure, shortened: as §5

[28] = tested on: persian speedwell; experiment: Test Example 4: herbicidal effect by soil treatment (Table 19, symbol R); assay type: in vivo, Persian speedwell (Veronica persica); settings: AAH 320 g/ha
Procedure, shortened: as §5

[29] = tested on: barnyard grass; experiment: Test Example 4: herbicidal effect by soil treatment (Table 19, symbol H); assay type: in vivo, barnyard grass (Echinochloa crus-galli); settings: AAH 320 g/ha
Procedure, shortened: as §5

COC(=O)COc1ccc(-c2sc3ccccc3c2-c2c(O)c(C)nn(C)c2=O)cc1 [1-232]
herbicidal effect on D (Chinese sprangletop), rating 0-5 [1]: 3 (Herbicidal rate of 40% or more and less than 70%)
herbicidal effect rating, C: oval-leafed pondweed [2]: 0 (Herbicidal rate of 5% or less (almost no effect))
herbicidal effect rating, A: late watergrass [3]: 3 (Herbicidal rate of 40% or more and less than 70%)
herbicidal effect on E (rice flat sedge), rating 0-5 [4]: 3 (Herbicidal rate of 40% or more and less than 70%)
herbicidal effect rating, B: Japanese bulrush [5]: 0 (Herbicidal rate of 5% or less (almost no effect))
herbicidal effect on H (barnyard grass), rating 0-5 [6]: 3 (Herbicidal rate of 40% or more and less than 70%)

C=CCOCc1ccc(-c2sc3ccccc3c2-c2c(O)c(C)nn(C)c2=O)cc1 [1-241]
effect on green foxtail (G) [7]: 5 (Herbicidal rate of 90% or more (almost completely withered))
Herbicidal effect on A: late watergrass (grade 0-5) [8]: 0 (Herbicidal rate of 5% or less (almost no effect))
effect on velvetleaf (M) [9]: 5 (Herbicidal rate of 90% or more (almost completely withered))
herbicidal effect on D (Chinese sprangletop), rating 0-5 [1]: 3 (Herbicidal rate of 40% or more and less than 70%)
effect on Italian ryegrass (K) [10]: 5 (Herbicidal rate of 90% or more (almost completely withered))
F: southern crabgrass, herbicidal effect rating [11]: 1 (Herbicidal rate of 5% or more and less than 20%)
effect on blackgrass (J) [12]: 3 (Herbicidal rate of 40% or more and less than 70%)
herbicidal effect rating, A: late watergrass [3]: 3 (Herbicidal rate of 40% or more and less than 70%)
N: redroot pigweed, herbicidal effect rating [13]: 5 (Herbicidal rate of 90% or more (almost completely withered))
M: velvetleaf, herbicidal effect rating [14]: 0 (Herbicidal rate of 5% or less (almost no effect))
Herbicidal effect on C: oval-leafed pondweed (grade 0-5) [15]: 2 (Herbicidal rate of 20% or more and less than 40%)
Herbicidal effect on B: Japanese bulrush (grade 0-5) [16]: 3 (Herbicidal rate of 40% or more and less than 70%)
effect on southern crabgrass (F) [17]: 2 (Herbicidal rate of 20% or more and less than 40%)
effect on wild oat (I) [18]: 0 (Herbicidal rate of 5% or less (almost no effect))
effect on barnyard grass (H) [19]: 4 (Herbicidal rate of 70% or more and less than 90%)
G: green foxtail, herbicidal effect rating [20]: 3 (Herbicidal rate of 40% or more and less than 70%)
herbicidal effect on E (rice flat sedge), rating 0-5 [4]: 4 (Herbicidal rate of 70% or more and less than 90%)
K: Italian ryegrass, herbicidal effect rating [21]: 3 (Herbicidal rate of 40% or more and less than 70%)
P: chickweed, herbicidal effect rating [22]: 3 (Herbicidal rate of 40% or more and less than 70%)
herbicidal effect rating, B: Japanese bulrush [5]: 3 (Herbicidal rate of 40% or more and less than 70%)
effect on lambsquarters (O) [23]: 4 (Herbicidal rate of 70% or more and less than 90%)
effect on persian speedwell (R) [24]: 5 (Herbicidal rate of 90% or more (almost completely withered))
herbicidal effect on H (barnyard grass), rating 0-5 [6]: 5 (Herbicidal rate of 90% or more (almost completely withered))
O: lambsquarters, herbicidal effect rating [25]: 4 (Herbicidal rate of 70% or more and less than 90%)
I: wild oat, herbicidal effect rating [26]: 0 (Herbicidal rate of 5% or less (almost no effect))
J: blackgrass, herbicidal effect rating [27]: 2 (Herbicidal rate of 20% or more and less than 40%)
R: persian speedwell, herbicidal effect rating [28]: 5 (Herbicidal rate of 90% or more (almost completely withered))
H: barnyard grass, herbicidal effect rating [29]: 3 (Herbicidal rate of 40% or more and less than 70%)
